According to the supplement of paper PMC7214452:
Where a name gives a salt, the structure may show the parent alone.

What was measured:
Experiment in all cases: normalized area under the dose-response curve (viability relative to DMSO control) (fraction); higher = less sensitive (more viable cells)
Details in all cases: exposure time not given
L363 (cancer type: MM) = system: L363 (cancer type: MM)
Description: (§1)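 25 myeloma and 15 non-Hodgkin lymphoma cell lines were exposed to each of 76 drugs as 7-point log dilutions (0.01 nM–10 µM) in duplicate. Viability was read with CellTiter-Glo and normalised to DMSO (0.1%) and staurosporine (10 µM) plate controls. Normalised AUC was calculated by the trapezoidal method relative to the negative control.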

MM1.R (cancer type: MM) = system: MM1.R (cancer type: MM)
Description: as §1

[1] = system: Mino (cancer type: Mantle)
Description: as §1

[2] = system: JeKo-1 (cancer type: Mantle)
Description: as §1

KMS11 (cancer type: MM) = system: KMS11 (cancer type: MM)
Description: as §1

[3] = system: SU-DHL6 (cancer type: DLBCL)
Description: as §1

My-La (cancer type: TCL) = system: My-La (cancer type: TCL)
Description: as §1

EJM (cancer type: MM) = system: EJM (cancer type: MM)
Description: as §1

[4] = system: OCI-LY3 (cancer type: DLBCL)
Description: as §1

MM1.S (cancer type: MM) = system: MM1.S (cancer type: MM)
Description: as §1

SKMM2 (cancer type: MM) = system: SKMM2 (cancer type: MM)
Description: as §1

KMS18 (cancer type: MM) = system: KMS18 (cancer type: MM)
Description: as §1

U266 (cancer type: MM) = system: U266 (cancer type: MM)
Description: as §1

[5] = system: Karpas-299 (cancer type: TCL)
Description: as §1

[6] = system: KMS28PE (cancer type: MM)
Description: as §1

KMS34 (cancer type: MM) = system: KMS34 (cancer type: MM)
Description: as §1

[7] = system: SU-DHL2 (cancer type: DLBCL)
Description: as §1

[8] = system: OCI-MY7 (cancer type: MM)
Description: as §1

[9] = system: RPMI 8226 (cancer type: MM)
Description: as §1

[10] = system: Granta-519 (cancer type: Mantle)
Description: as §1

KMS26 (cancer type: MM) = system: KMS26 (cancer type: MM)
Description: as §1

[11] = system: OCI-LY1 (cancer type: DLBCL)
Description: as §1

[12] = system: OCI-LY19 (cancer type: DLBCL)
Description: as §1

[13] = system: OCI-MY5 (cancer type: MM)
Description: as §1

FR4 (cancer type: MM) = system: FR4 (cancer type: MM)
Description: as §1

LP1 (cancer type: MM) = system: LP1 (cancer type: MM)
Description: as §1

XG2 (cancer type: MM) = system: XG2 (cancer type: MM)
Description: as §1

[14] = system: NCI-H929 (cancer type: MM)
Description: as §1

[15] = system: KMS12PE (cancer type: MM)
Description: as §1

[16] = system: SR-786 (cancer type: TCL)
Description: as §1

AMO1 (cancer type: MM) = system: AMO1 (cancer type: MM)
Description: as §1

[17] = system: KMS28BM (cancer type: MM)
Description: as §1

[18] = system: OCI-MY5/CRBN (cancer type: MM)
Description: as §1

[19] = system: OCI-MY5/Vec (cancer type: MM)
Description: as §1

[20] = system: HuT 78 (cancer type: TCL)
Description: as §1

[21] = system: SU-DHL1 (cancer type: TCL)
Description: as §1

Se-Ax (cancer type: TCL) = system: Se-Ax (cancer type: TCL)
Description: as §1

[22] = system: JVM2 (cancer type: Mantle)
Description: as §1

JJN3 (cancer type: MM) = system: JJN3 (cancer type: MM)
Description: as §1

OPM2 (cancer type: MM) = system: OPM2 (cancer type: MM)
Description: as §1

SMILES	normalized area under the dose-response curve (L363 (cancer type: MM))	normalized area under the dose-response curve (MM1.R (cancer type: MM))	normalized area under the dose-response curve [1]	normalized area under the dose-response curve [2]	normalized area under the dose-response curve (KMS11 (cancer type: MM))	normalized area under the dose-response curve [3]	normalized area under the dose-response curve (My-La (cancer type: TCL))	normalized area under the dose-response curve (EJM (cancer type: MM))	normalized area under the dose-response curve [4]	normalized area under the dose-response curve (MM1.S (cancer type: MM))	normalized area under the dose-response curve (SKMM2 (cancer type: MM))	normalized area under the dose-response curve (KMS18 (cancer type: MM))	normalized area under the dose-response curve (U266 (cancer type: MM))	normalized area under the dose-response curve [5]	normalized area under the dose-response curve [6]	normalized area under the dose-response curve (KMS34 (cancer type: MM))	normalized area under the dose-response curve [7]	normalized area under the dose-response curve [8]	normalized area under the dose-response curve [9]	normalized area under the dose-response curve [10]	normalized area under the dose-response curve (KMS26 (cancer type: MM))	normalized area under the dose-response curve [11]	normalized area under the dose-response curve [12]	normalized area under the dose-response curve [13]	normalized area under the dose-response curve (FR4 (cancer type: MM))	normalized area under the dose-response curve (LP1 (cancer type: MM))	normalized area under the dose-response curve (XG2 (cancer type: MM))	normalized area under the dose-response curve [14]	normalized area under the dose-response curve [15]	normalized area under the dose-response curve [16]	normalized area under the dose-response curve (AMO1 (cancer type: MM))	normalized area under the dose-response curve [17]	normalized area under the dose-response curve [18]	normalized area under the dose-response curve [19]	normalized area under the dose-response curve [20]	normalized area under the dose-response curve [21]	normalized area under the dose-response curve (Se-Ax (cancer type: TCL))	normalized area under the dose-response curve [22]	normalized area under the dose-response curve (JJN3 (cancer type: MM))	normalized area under the dose-response curve (OPM2 (cancer type: MM))
Nc1ncn([C@H]2C[C@H](O)[C@@H](CO)O2)c(=O)n1 [Decitabine]	0.82	0.85	0.818	0.644	0.871	0.844	0.957	0.916	0.883	0.89	0.933	0.97	0.804	0.912	0.778	0.702	0.94	0.91	0.914	0.978	0.897	0.912	0.84	0.773	0.937	0.88	0.896	0.89	0.9	0.854	0.836	0.955	0.888	0.93	0.958	0.962	0.832	0.879	0.912	0.835
C[C@@H]1C[C@H]2[C@@H]3CCC4=CC(=O)C=C[C@]4(C)[C@@]3(F)[C@@H](O)C[C@]2(C)[C@@]1(O)C(=O)CO [Dexamethasone]	0.756	0.94	0.86	0.875	0.805	0.8	0.883	0.777	0.963	0.66	0.648	0.788	0.818	0.852	0.735	0.487	0.686	0.76	0.777	0.925	0.773	0.924	0.947	0.725	0.933	0.613	0.863	0.79	0.96	0.972	0.762	0.904	0.928	0.814	0.873	0.907	0.759	0.799	0.983	0.826
CCc1cnn2c(NCc3ccc[n+]([O-])c3)cc(N3CCCC[C@H]3CCO)nc12 [Dinaciclib]	0.0142	0.03	0.392	0.0614	0.084	0.667	0.582	0.0534	0.148	0.03	0.628	0.0366	0.0357	0.0458	0.169	0.124	0.393	0.02	0.0467	0.625	0.0286	0.0794	0.414	0.0272	0.0504	0.0551	0.0928	0.04	0.04	0.0218	0.03	0.0793	0.0017	0.0029	0.0209	0.0533	0.31	0.259	0.0469	0.0465
Cc1ccc(-n2nc(C(C)(C)C)cc2NC(=O)Nc2ccc(OCCN3CCOCC3)c3ccccc23)cc1 [Doramapimod]	0.801	0.88	0.97	1.04	0.782	0.858	0.907	0.872	0.9	0.8	0.969	0.926	0.634	0.916	0.842	0.737	0.901	0.89	0.917	0.938	0.787	0.999	0.645	0.693	0.932	0.87	0.806	0.87	0.89	0.919	0.842	0.887	0.961	0.916	0.812	0.737	0.736	0.687	0.726	0.834
CC(C)(O)CNc1nc(Nc2ccnc(C(F)(F)F)c2)nc(-c2cccc(C(F)(F)F)n2)n1 [Enasidenib (Agios ag-221)]	0.802	0.81	0.877	0.881	0.95	0.92	0.947	0.865	1	0.8	0.905	0.772	0.914	0.9	0.819	0.853	0.918	0.81	0.92	0.975	0.887	0.957	0.972	0.723	0.944	0.772	0.899	0.92	0.9	0.908	0.864	0.894	0.903	0.847	0.86	0.888	0.837	0.787	0.822	0.749
C#Cc1cccc(Nc2ncnc3cc(OCCOC)c(OCCOC)cc23)c1 [Erlotinib hydrochloride]	0.814	0.84	0.95	0.886	0.85	0.905	0.972	0.91	0.897	0.86	0.922	0.84	0.946	0.907	0.871	0.805	0.839	0.84	0.903	0.938	0.928	0.888	0.864	0.796	0.877	0.869	0.888	0.88	0.8	0.962	0.897	0.847	0.878	0.861	0.756	0.87	0.84	0.665	0.878	0.86
